The values that follow come from patent publication US5780505A, “Substituted N-arylmethylamino derivatives of cyclobutene-3, 4-diones” (American Home Products Corporation, priority 1997, dated 1998).

Where two headings read alike, the source gives them in different places.

Assay [1] concerns hypertrophied bladder (detrussor) smooth muscle. Briefly: Inhibition of spontaneous contractions in vivo (conscious female rats with hypertrophied bladders, cystometry). The arrangement: species or system Female Sprague-Dawley rats. As to conditions: hypertrophied rat bladder model. From the text:
In addition, we tested the ability of compounds to inhibit the hyperactivity of hypertrophied bladder (detrussor) smooth muscle in conscious female rats with hypertrophied bladders and thereby alleviate urinary incontinence in rats according to the following protocol described by Malmgren (A. Malmgren, K. E. Andersson, C. Sjogren, P. O. Andersson, Effects of pinacidil and Cromakalim (BRL 34915) on Bladder Function in Rats with Detrusor Instability, J. Urol. 142: 1134, 1989.):
Female Sprague-Dawley rats, ranging in weight from 190-210 g are used. Up to 25 animals are prepared each time. After developemnt of bladder hypertrophy 4-8 animals are used per test.
Compounds are dissolved in PEG-200 and administered by gastric gavage or intraveneously in a volume of 5 ml/kg. For primary screening all drugs are administered at the arbitrary dose of 10 mg/kg p.o. to groups of 4 rats.
The animals are anesthetized with halothane. Through a midline incision the bladder and urethra are exposed and a ligature of 4-0 silk is tied around the proximal urethra in the presence of a stainless steel rod (1 mm diameter) to produce a partial occlusion. The rod is then removed. The abdominal region is closed using surgical staples and each rat receives 150,000 units of bicillin C-R. The animals ar allowed six weeks to develop sufficient bladder hypertrophy. After six weeks, the ligature is removed under halothane anesthesia and a catheter (PE 60) with a cuff is placed in the dome of the bladder and secured with a purse string suture. The catheter is tunneled under the skin and exteriorized through an opening in the back of the neck. The abdominal incision is sutured and the free end of the catheter sealed. In order to prevent infections the rats receive an injection of bicillin C-R (150000 units/rat). Two days later the animals are used in cystometrical evaluations, The animals are placed in the metabolic cages and the catheter is attached (using a "T" connector) to a Statham pressure transducer (Model P23Db) and to a Harvard infusion pump. A plastic beaker attached to a force displacement transducer (Grass FTO3) is placed under the rat's cage to collect and record urine volume. Animals are allowed 15-30 min t rest before the saline infusion (20 ml/hr for 20 minutes) is started for the first cystometry period. Two hours after the first cystometry period, the rats are dosed with the vehicle or the test compound and one hour later a second cystometry is performed.
The following urodynamic variables are recorded:
Basal bladder pressure=the lowest bladder pressure during cystometry
Threshold pressure=bladder pressure immediately prior to micturition
Micturition volume=volume expelled
Micturition pressure=peak pressure during voiding
Spontaneous activity=mean amplitude of bladder pressure fluctuations during filling
Presentation of results: The mean value of each variable is calculated before and after compound administration. For each compound the changes in the variables measured are compared to the values obtained before treatment and expressed as percent inhibition. The data are also subjected to 2-way analysis of variance to determine significant (p<0.05) changes in the variable measured.
Criteria for Activity: The most characteristic finding in this rat model is spontaneous bladder contractions which develop during filling. The compounds which inhibit spontaneous contractions by at least 50% at 10 mg/kg p.o. or i.v. (arbitrary chosen dose) are considered active.

Assay [2] concerns Isolated Rat Bladder Strips. Description: Inhibition of contractions in isolated rat bladder strips (KCl-enhanced contractile activity; smooth muscle relaxation). The class given is cell-based, Sprague-Dawley rats. The gist of the method:
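Bladder strips from Sprague-Dawley rats were held in 37 °C PSS (pH 7.4, 95% O2/5% CO2) at 1.5 g resting tension with isometric force recording. Contractions were enhanced by an extra 15 mM KCl, then cumulative compound concentrations were added, each measured over the last minute of 30 min. IC50 is 50% inhibition of pre-drug contractile activity from the concentration-response curve.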

Setting [3] is: 0.5 h, isolated rat bladder strips, 15 mM additional KCl, 30 minute challenge, read-out: IC50 (50% inhibition of pre-drug contractile activity).

Usually IC50 stands for the concentration at which inhibition is half-maximal. As for `Cc1ccc(CNc2c(NC(C)(C)C)c(=O)c2=O)c(C)c1` [Example 8, 3-tert-Butylamino-4-(2,4-dimethyl-benzylamino)-cyclobut-3-ene-1,2-dione], the “% Red (F): percent reduction in the total number of spontaneous contractions” value (from here on “% Red (F): percent reduction”) in assay [1] (3 mg/kg p.o.) is reported as -38 ± 7%. Besides, the IC50 in assay [2] (setting [3]) stood at 630 ± 150 nM.
As a reminder, the inhibition is the change of the read-out against control, counted positive when it falls. As for `CC(Nc1c(NCc2ccc(C#N)cc2Cl)c(=O)c1=O)C(C)(C)C` (stereo not drawn) [Example 6, 3-Chloro-4-{[3,4-dioxo-2-(1,2,2-trimethyl-propylamino)-cyclobut-1-enylamino]-methyl}-benzonitrile], the results for the “% Red (F): percent reduction” value in assay [1] (3 mg/kg p.o.) and in assay [1] (10 mg/kg p.o.) were -51 ± 6% and -71 ± 3%, respectively. Moreover, the IC50 in assay [2] (setting [3]) turned out to be 660 ± 200 nM. Moreover, in assay [2] (Rattus norvegicus, read-out: Percent inhibition at 30 μM (I)), the inhibition at 30 µM amounted to 41.2%.
`Cc1cccc(Cl)c1CNc1c(NC(C)(C)C)c(=O)c1=O` [Example 31, 3-tert-Butylamino-4-(2-chloro-6-methyl-benzylamino)-cyclobut-3-ene-1,2-dion]: in assay [1] (10 mg/kg p.o.), the “% Red (F): percent reduction” value is given as -38 ± 13%. Also, in assay [2] (setting [3]), the IC50 turned out to be 1100 ± 300 nM.
For `CCC(C)(C)Nc1c(NCc2ccc(C#N)cc2Cl)c(=O)c1=O` [Example 76], the “% Red (F): percent reduction” value in assay [1] (3 mg/kg p.o.) is -57 ± 12%. The IC50 in assay [2] (setting [3]) worked out at 60 ± 14 nM; in assay [2] (Rattus norvegicus, second lot (mp 215.5-216.0° C., softens 211.5° C.), n = 6, read-out: IC50 of a second lot), 130 ± 30 nM.
For the compound `Cc1cc(Br)cc(C)c1CNc1c(NC(C)(C)C)c(=O)c1=O` [Example 36, 3-(4-Bromo-2,6-dimethyl-benzylamino)-4-tert-butylamino-cyclobut-3-ene-1,2-dione], the “% Red (F): percent reduction” value in assay [1] (3 mg/kg p.o.) is -83 ± 9%. In addition, the IC50 in assay [2] (setting [3]) amounted to 290 ± 20 nM.
`CC(C)(C)Nc1c(NCc2ccc(C#N)cc2Cl)c(=O)c1=O` [Example 2, 4-[(2-tert-Butylamino-3,4-dioxo-cyclobut-1-enylamino)-methyl]-3-chloro-benzonitrile]: the “% Red (F): percent reduction” value in assay [1] (1 mg/kg p.o., prior lot of this compound (mp 234-236° C.)) is reported as -34 ± 11%; in assay [1] (3 mg/kg p.o., prior lot of this compound (mp 234-236° C.)), -49 ± 8%; in assay [1] (10 mg/kg p.o., prior lot of this compound (mp 234-236° C.)) it was -93 ± 3%. Besides, the IC50 is 140 ± 20 nM in assay [2] (setting [3]) and 570 ± 340 nM in assay [2] (Rattus norvegicus, prior lot (mp 234-236° C., softens 225° C.), n = 4, read-out: IC50 of a prior lot).
